In test [1] the target is T1, recombinant N-terminal GST-tagged human Rho kinase 1 (ROCK1, amino acids 1-535) (Homo sapiens, UniProt Q13464).
T1 construct: ROCK1, amino acids 1-535; purchased Invitrogen Inc. PV-3691
Briefly: In vitro Rho kinase assay (luciferase-based ATP consumption), ROCK1. It counts as biochemical. The conditions noted are these: recombinant GST-tagged human ROCK1, luciferase-based ATP consumption; read-out: ROCK1 IC50. The method in brief: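 ATP depletion measured by firefly luciferase luminescence after 2 h at 30 °C, with inhibition raising signal and activity expressed relative to H-1152P. Reaction: 0.82 μg/ml recombinant GST-tagged ROCK1 (aa 1-535), S6 peptide 100 μg/ml, […], pH 7.5 Tris buffer.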

Test [2] has as its target T2, recombinant N-terminal GST-tagged human Rho kinase 2 (ROCK2, amino acids 1-552) (Homo sapiens, UniProt O75116).
T2 construct: ROCK2, amino acids 1-552; purchased Invitrogen Inc. PV3759
Put plainly: In vitro Rho kinase assay (luciferase-based ATP consumption), ROCK2. The class given is biochemical. The conditions noted are these: recombinant GST-tagged human ROCK2, luciferase-based ATP consumption; read-out: ROCK2 IC50. The method in brief:
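Luciferase-based luminescence of leftover ATP after 2 h at 30 °C, where inhibition raises signal, reports activity of GST-tagged ROCK2 (aa 1-552) at 0.82 μg/ml. Conditions: S6 peptide 100 μg/ml, […], pH 7.5 Tris buffer. Results given as percent of H-1152P control activity.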

In general, IC50 refers to the concentration that inhibits the measured activity by half.

T2 sequence (O75116 1-552): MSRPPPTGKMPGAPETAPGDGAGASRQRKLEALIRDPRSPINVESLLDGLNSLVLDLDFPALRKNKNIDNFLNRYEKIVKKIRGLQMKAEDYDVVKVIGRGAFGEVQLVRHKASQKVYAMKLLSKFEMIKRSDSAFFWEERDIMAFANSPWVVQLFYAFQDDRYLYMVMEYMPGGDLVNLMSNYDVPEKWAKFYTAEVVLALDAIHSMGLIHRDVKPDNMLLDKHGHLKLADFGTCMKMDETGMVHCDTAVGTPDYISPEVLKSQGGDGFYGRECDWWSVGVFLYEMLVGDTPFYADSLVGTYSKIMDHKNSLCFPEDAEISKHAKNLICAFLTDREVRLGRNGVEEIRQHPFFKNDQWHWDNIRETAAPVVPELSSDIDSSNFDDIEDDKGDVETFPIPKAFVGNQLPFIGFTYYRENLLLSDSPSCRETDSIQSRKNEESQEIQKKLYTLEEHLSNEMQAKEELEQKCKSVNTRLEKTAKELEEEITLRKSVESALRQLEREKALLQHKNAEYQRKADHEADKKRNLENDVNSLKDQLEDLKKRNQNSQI
T1 sequence (Q13464 1-535): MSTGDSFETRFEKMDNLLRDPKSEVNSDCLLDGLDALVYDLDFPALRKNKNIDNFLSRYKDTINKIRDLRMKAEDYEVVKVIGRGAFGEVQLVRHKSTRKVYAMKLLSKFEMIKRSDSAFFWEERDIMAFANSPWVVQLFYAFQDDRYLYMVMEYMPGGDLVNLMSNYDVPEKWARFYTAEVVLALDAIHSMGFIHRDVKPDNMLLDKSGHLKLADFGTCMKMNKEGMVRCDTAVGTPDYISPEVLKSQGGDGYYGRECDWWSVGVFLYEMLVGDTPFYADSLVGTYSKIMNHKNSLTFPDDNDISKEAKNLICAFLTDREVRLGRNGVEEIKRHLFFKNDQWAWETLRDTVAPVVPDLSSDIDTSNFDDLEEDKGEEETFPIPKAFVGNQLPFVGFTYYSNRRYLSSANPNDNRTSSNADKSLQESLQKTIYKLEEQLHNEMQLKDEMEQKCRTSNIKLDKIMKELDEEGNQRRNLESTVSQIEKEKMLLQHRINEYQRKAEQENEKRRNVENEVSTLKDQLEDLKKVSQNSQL

With `Cc1c(-c2ccnc(N)n2)sc2ccc(CNC(=O)c3ccc(F)cc3F)cc12` [Example 155, Cc1c(sc2ccc(CNC(═O)c3ccc(F)cc3F)cc12)-c4ccnc(N)n4], the IC50 in test [1] is greater than 5 µM; in test [2], less than 5 µM.
The matching figures for `Cc1c(-c2ccnc(N)n2)sc2ccc(CNC(=O)c3cc(F)cc(F)c3)cc12` [Example 156, Cc1c(sc2ccc(CNC(═O)c3cc(F)cc(F)c3)cc12)-c4ccnc(N)n4]: less than 5 µM and less than 5 µM.
Consider `Cc1c(-c2ccnc(N)n2)sc2ccc(CNC(=O)c3ccc(F)c(F)c3)cc12` [Example 157, Cc1c(sc2ccc(CNC(═O)c3ccc(F)c(F)c3)cc12)-c4ccnc(N)n4], for which the results for the IC50 in test [1] and in test [2] were greater than 5 µM and less than 5 µM, respectively.
As for `Cc1c(-c2ccnc(N)n2)sc2ccc(CNC(=O)CC(C)CC(C)(C)C)cc12` (centres unmarked) [Example 158, CC(CC(═O)NCc1ccc2sc(c(C)c2c1)-c3ccnc(N)n3)CC(C)(C)C], the IC50 in test [1] and in test [2] was greater than 5 µM throughout.
Consider `Cc1c(-c2ccnc(N)n2)sc2ccc(CNC(=O)C3CCc4ccccc43)cc12` (centres unmarked) [Example 159, Cc1c(sc2ccc(CNC(═O)C3CCc4ccccc34)cc12)-c5ccnc(N)n5], for which the IC50 in test [1] and in test [2] was less than 5 µM each time.
With `Cc1c(-c2ccnc(N)n2)sc2ccc(CNC(=O)C(Cl)(Cl)Cl)cc12` [Example 160, Cc1c(sc2ccc(CNC(═O)C(Cl)(Cl)Cl)cc12)-c3ccnc(N)n3], the IC50 in test [1] and in test [2] was less than 5 µM throughout.
On to `Cc1c(-c2ccnc(N)n2)sc2ccc(CNC(=O)C=Cc3ccccc3O)cc12` [Example 161, Cc1c(sc2ccc(CNC(═O)C═Cc3ccccc3O)cc12)-c4ccnc(N)n4], for which the IC50 in test [1] and in test [2] was less than 5 µM each time.
In the case of `CC(=O)c1ccc(C(=O)NCc2ccc3sc(-c4ccnc(N)n4)c(C)c3c2)cc1` [Example 162, CC(═O)c1ccc(Cc1)C(═O)NCc2ccc3sc(c(C)c3c2)-c4ccnc(N)n4], the IC50 was greater than 5 µM in test [1] and less than 5 µM in test [2].
Taken in the same sequence, the figures for `Cc1c(-c2ccnc(N)n2)sc2ccc(CNC(=O)C=Cc3cccc(O)c3)cc12` [Example 163, Cc1c(sc2ccc(CNC(═O)C═Cc3cccc(O)c3)cc12)-c4ccnc(N)n4] were less than 5 µM and less than 5 µM.
The matching figures for `CC(=O)c1cccc(C(=O)NCc2ccc3sc(-c4ccnc(N)n4)c(C)c3c2)c1` [Example 164, CC(═O)c1cccc(c1)C(═O)NCc2ccc3sc(c(C)c3c2)-c4ccnc(N)n4]: greater than 5 µM and less than 5 µM.
In the case of `CC(=O)c1ccccc1C(=O)NCc1ccc2sc(-c3ccnc(N)n3)c(C)c2c1` [Example 165, CC(═O)c1ccccc1C(═O)NCc2ccc3sc(c(C)c3c2)-c4ccnc(N)n4], the figures for the IC50 in test [1] and in test [2] were greater than 5 µM and less than 5 µM, respectively.
The matching figures for `Cc1c(-c2ccnc(N)n2)sc2ccc(CNC(=O)c3ccc(C(C)C)cc3)cc12` [Example 166, CC(C)c1ccc(cc1)C(═O)NCc2ccc3sc(c(C)c3c2)-c4ccnc(N)n4]: greater than 5 µM and greater than 5 µM.
Taken in the same sequence, the figures for `Cc1ccccc1CCC(=O)NCc1ccc2sc(-c3ccnc(N)n3)c(C)c2c1` [Example 167, Cc1ccccc1CCC(═O)NCc2ccc3sc(c(C)c3c2)-c4ccnc(N)n4] were greater than 5 µM and less than 5 µM.
The matching figures for `Cc1cccc(CCC(=O)NCc2ccc3sc(-c4ccnc(N)n4)c(C)c3c2)c1` [Example 168, Cc1cccc(CCC(═O)NCc2ccc3sc(c(C)c3c2)-c4ccnc(N)n4)c1]: less than 5 µM and less than 5 µM.
In the case of `CCC(C(=O)NCc1ccc2sc(-c3ccnc(N)n3)c(C)c2c1)c1ccccc1` (centres unmarked) [Example 169, CCC(C(═O)NCc1ccc2sc(c(C)c2c1)-c3ccnc(N)n3)c4ccccc4], the IC50 in test [1] and in test [2] was less than 5 µM throughout.
Take `Cc1cc(C)c(C(=O)NCc2ccc3sc(-c4ccnc(N)n4)c(C)c3c2)c(C)c1` [Example 170, Cc1cc(C)c(c(C)c1)C(═O)NCc2ccc3sc(c(C)c3c2)-c4ccnc(N)n4]: the IC50 was greater than 5 µM in test [1] and less than 5 µM in test [2].
Regarding `CCCc1ccc(C(=O)NCc2ccc3sc(-c4ccnc(N)n4)c(C)c3c2)cc1` [Example 171, CCCc1ccc(cc1)C(═O)NCc2ccc3sc(c(C)c3c2)-c4ccnc(N)n4], the IC50 in test [1] and in test [2] was greater than 5 µM in each case.
In the case of `Cc1c(-c2ccnc(N)n2)sc2ccc(CNC(=O)c3ccc4c(c3)OCO4)cc12` [Example 172, Cc1c(sc2ccc(CNC(═O)c3ccc4OCOc4c3)cc12)-c5ccnc(N)n5], the IC50 in test [1] and in test [2] was less than 5 µM each time.
Take `Cc1c(-c2ccnc(N)n2)sc2ccc(CNC(=O)C=Cc3ccccc3F)cc12` [Example 173, Cc1c(sc2ccc(CNC(═O)C═Cc3ccccc3F)cc12)-c4ccnc(N)n4]: the IC50 is greater than 5 µM in test [1] and less than 5 µM in test [2].
`CCOc1ccccc1C(=O)NCc1ccc2sc(-c3ccnc(N)n3)c(C)c2c1` [Example 174, CCOc1ccccc1C(═O)NCc2ccc3sc(c(C)c3c2)-c4ccnc(N)n4]: the IC50 in test [1] and in test [2] was greater than 5 µM each time.
With `Cc1ccccc1OCC(=O)NCc1ccc2sc(-c3ccnc(N)n3)c(C)c2c1` [Example 175, Cc1ccccc1OCC(═O)NCc2ccc3sc(c(C)c3c2)-c4ccnc(N)n4], the values for the IC50 in test [1] and in test [2] were greater than 5 µM and less than 5 µM, respectively.
As to `Cc1c(-c2ccnc(N)n2)sc2ccc(CNC(=O)CCc3ccccc3O)cc12` [Example 176, Cc1c(sc2ccc(CNC(═O)CCc3ccccc3O)cc12)-c4ccnc(N)n4], the results for the IC50 in test [1] and in test [2] were greater than 5 µM and less than 5 µM, respectively.
For `COc1ccccc1CC(=O)NCc1ccc2sc(-c3ccnc(N)n3)c(C)c2c1` [Example 177, COc1ccccc1CC(═O)NCc2ccc3sc(c(C)c3c2)-c4ccnc(N)n4], the figures for the IC50 in test [1] and in test [2] were greater than 5 µM and less than 5 µM, respectively.
The matching figures for `Cc1c(-c2ccnc(N)n2)sc2ccc(CNC(=O)C(C)c3ccc(O)cc3)cc12` (centres unmarked) [Example 178, CC(C(═O)NCc1ccc2sc(c(C)c2c1)-c3ccnc(N)n3)c4ccc(O)cc4]: less than 5 µM and less than 5 µM.
Regarding `Cc1c(-c2ccnc(N)n2)sc2ccc(CNC(=O)c3ccccc3[N+](=O)[O-])cc12` [Example 179, Cc1c(sc2ccc(CNC(═O)c3ccccc3[N+]([O−])═O)cc12)-c4ccnc(N)n4], the figures for the IC50 in test [1] and in test [2] were greater than 5 µM and less than 5 µM, respectively.
For `Cc1c(-c2ccnc(N)n2)sc2ccc(CNC(=O)c3cccc([N+](=O)[O-])c3)cc12` [Example 180, Cc1c(sc2ccc(CNC(═O)c3cccc(c3)[N+]([O−])═O)cc12)-c4ccnc(N)n4], the IC50 in test [1] and in test [2] was less than 5 µM in each case.
For `COc1cccc(O)c1C(=O)NCc1ccc2sc(-c3ccnc(N)n3)c(C)c2c1` [Example 181, COc1cccc(O)c1C(═O)NCc2ccc3sc(c(C)c3c2)-c4ccnc(N)n4], the IC50 in test [1] and in test [2] was less than 5 µM in each case.
For `COc1ccc(O)c(C(=O)NCc2ccc3sc(-c4ccnc(N)n4)c(C)c3c2)c1` [Example 182, COc1ccc(O)c(c1)C(═O)NCc2ccc3sc(c(C)c3c2)-c4ccnc(N)n4], the IC50 in test [1] is greater than 5 µM; in test [2] it was less than 5 µM.
The matching figures for `COc1ccc(C(=O)NCc2ccc3sc(-c4ccnc(N)n4)c(C)c3c2)c(O)c1` [Example 183, COc1ccc(C(═O)NCc2ccc3sc(c(C)c3c2)-c4ccnc(N)n4)c(O)c1]: greater than 5 µM and less than 5 µM.
Turning to `Cc1c(-c2ccnc(N)n2)sc2ccc(CNC(=O)c3cc(O)c(O)c(O)c3)cc12` [Example 185, Cc1c(sc2ccc(CNC(═O)c3cc(O)c(O)c(O)c3)cc12)-c4ccnc(N)n4], the IC50 in test [1] was greater than 5 µM; in test [2] it was less than 5 µM.
The matching figures for `Cc1c(-c2ccnc(N)n2)sc2ccc(CNC(=O)Cc3ccc(O)c(F)c3)cc12` [Example 186, Cc1c(sc2ccc(CNC(═O)Cc3ccc(O)c(F)c3)cc12)-c4ccnc(N)n4]: less than 5 µM and less than 5 µM.
Turning to `Cc1cc(C(=O)NCc2ccc3sc(-c4ccnc(N)n4)c(C)c3c2)cc(Cl)n1` [Example 187, Cc1cc(cc(Cl)n1)C(═O)NCc2ccc3sc(c(C)c3c2)-c4ccnc(N)n4], the IC50 in test [1] and in test [2] was less than 5 µM each time.
As to `Cc1c(-c2ccnc(N)n2)sc2ccc(CNC(=O)Cc3c(F)cccc3F)cc12` [Example 188, Cc1c(sc2ccc(CNC(═O)Cc3c(F)cccc3F)cc12)-c4ccnc(N)n4], the IC50 in test [1] and in test [2] was less than 5 µM in each case.
`Cc1c(-c2ccnc(N)n2)sc2ccc(CNC(=O)c3cccc4ccccc34)cc12` [Example 189, Cc1c(sc2ccc(CNC(═O)c3cccc4ccccc34)cc12)-c5ccnc(N)n5]: the IC50 in test [1] and in test [2] was less than 5 µM throughout.
`Cc1c(-c2ccnc(N)n2)sc2ccc(CNC(=O)c3ccc(Cl)cc3O)cc12` [Example 190, Cc1c(sc2ccc(CNC(═O)c3ccc(Cl)cc3O)cc12)-c4ccnc(N)n4]: the IC50 in test [1] and in test [2] was less than 5 µM each time.
Regarding `Cc1c(-c2ccnc(N)n2)sc2ccc(CNC(=O)c3cc(Cl)ccc3O)cc12` [Example 191, Cc1c(sc2ccc(CNC(═O)c3cc(Cl)ccc3O)cc12)-c4ccnc(N)n4], the IC50 in test [1] was greater than 5 µM; in test [2], less than 5 µM.
Taken in the same sequence, the figures for `Cc1c(-c2ccnc(N)n2)sc2ccc(CNC(=O)c3ccc4ncccc4c3)cc12` [Example 192, Cc1c(sc2ccc(CNC(═O)c3ccc4ncccc4c3)cc12)-c5ccnc(N)n5] were greater than 5 µM and less than 5 µM.
